This data set relates to CCRIS mutagenicity, Ames/micronucleus/aberration tests. The data set can be described thus: CCRIS mutagenicity studies.

Calls of active or inactive are those of the source. The rule behind the calls is not given here.

As to `c1ccc(Nc2ccc(Nc3ccccc3)cc2)cc1`, the mutagenic call is “inactive; negative” (End Point: IN VITRO CHROMOSOMAL ABERRATIONS, Test System: CHINESE HAMSTER LUNG CELLS (CHL), Metabolic Activation: RAT, LIVER, S-9, KC-400); “inactive; negative” (End Point: IN VITRO CHROMOSOMAL ABERRATIONS, Test System: CHINESE HAMSTER OVARY CELLS (CHO), Metabolic Activation: NONE); “inactive; negative” (End Point: IN VITRO CHROMOSOMAL ABERRATIONS, Test System: CHINESE HAMSTER OVARY CELLS (CHO), Metabolic Activation: RAT, LIVER, S-9, AROCLOR 1254); “inactive; negative; authors report equivocal results for structural changes at 0.08 and 0” (End Point: IN VITRO CHROMOSOMAL ABERRATIONS, Test System: CHL CELLS, Metabolic Activation: RAT, LIVER, S-9, SODIUM PHENOBARBITAL AND 5,6-BENZOFLAVONE); “active; positive” (Test System: AMES SALMONELLA TYPHIMURIUM, Strain/Indicator: TA98, Metabolic Activation: HAMSTER, LIVER, S-9, AROCLOR 1254 (30%), Method: PREINCUBATION); “inactive; negative” (Test System: AMES SALMONELLA TYPHIMURIUM, Strain/Indicator: TA98, Metabolic Activation: NONE, Method: PREINCUBATION). The mutagenic call reads like this: (Test System: AMES SALMONELLA TYPHIMURIUM, Strain/Indicator: TA98, Metabolic Activation: NONE, Method: STANDARD PLATE) “inactive; negative”; (Test System: AMES SALMONELLA TYPHIMURIUM, Strain/Indicator: TA98, Metabolic Activation: RAT, LIVER, S-9, AROCLOR 1254 (30%), Method: PREINCUBATION) “active; positive”; (Test System: AMES SALMONELLA TYPHIMURIUM, Strain/Indicator: TA98, Metabolic Activation: S-9, Method: STANDARD PLATE) “inactive; negative”; (Test System: AMES SALMONELLA TYPHIMURIUM, Strain/Indicator: TA100, Metabolic Activation: HAMSTER, LIVER, S-9, AROCLOR 1254 (30%), Method: PREINCUBATION) “inactive; negative”; (Test System: AMES SALMONELLA TYPHIMURIUM, Strain/Indicator: TA100, Metabolic Activation: NONE, Method: PREINCUBATION) “inactive; negative”; (Test System: AMES SALMONELLA TYPHIMURIUM, Strain/Indicator: TA100, Metabolic Activation: NONE, Method: STANDARD PLATE) “inactive; negative”. The mutagenic call reads like this: (Test System: AMES SALMONELLA TYPHIMURIUM, Strain/Indicator: TA100, Metabolic Activation: RAT, LIVER, S-9, AROCLOR 1254 (30%), Method: PREINCUBATION) “inactive; negative”; (Test System: AMES SALMONELLA TYPHIMURIUM, Strain/Indicator: TA100, Metabolic Activation: S-9, Method: STANDARD PLATE) “inactive; negative”.
